Source: patent US9163018B2, “Method of treatment of age-related macular degeneration (AMD)” (Prana Biotechnology Limited, priority 2006, dated 2015)

Tests used:
[1] = tested on: primary cortical neuronal cultured cells; experiment: Test compound cytotoxicity, MTS assay, primary cortical neuronal cultures; type: cell-based, mouse; settings: for Cytotox (% viable) Neuronal cells at 1 μM: 1 μM test compound; for Cytotox (% viable) Neuronal cells at 10 μM: 10 μM test compound
Procedure: Assay 2. Neurotoxicity Assays
Primary Cortical Neuronal Cultures
Media was then replaced with Neurobasal media (Invitrogen Life Technologies) and B27 supplements (Invitrogen Life Technologies). Cultures were maintained at 37° C. in 5% CO2. Prior to experimentation, the culture medium was replaced with Neurobasal media and B27 minus antioxidants (Invitrogen Life Technologies).
(§1) Assay 3. MTS Assay for Cell Viability
(§2) Cell viability is determined using the MTS assay. Culture medium is replaced with fresh neurobasal medium plus B27 supplements minus antioxidants. 1/10th volume MTS solution (Cell Titre 96 Aqueous One, Promega Corporation) and incubated at 37° C., 2 hrs. 200 microliter aliquots are measured with a spectrophotometer at 560 nm.
Assay 4. Assay for Test Compound Cytoxicity
Neuronal cortical cells were cultured for five days as per Assay 2 in NB media and B27 supplement.
On day six the test compounds were added to the neuronal cell cultures in NB media and B27 supplement minus antioxidants.
Test compounds were dissolved in 100% DMSO to a concentration of 2.5 mM (10 mM if excess compound was weighed out per vial—then diluted to 2.5 mM).
Test compounds were not added directly to cells, instead they were added to a 48 well ‘Drug Plate’ as comprised below:
The Drug Plate was incubated at 37° C. for 15 mins. 200 μl of each well was added in triplicate to the corresponding cell plate. The cell plate was incubated at 37 C, for 4 days.
On completion of the assay, 1/10 volume MTS was added per well of plate (ie 25 μl/250 μl). The plates were incubated at 37 C for 2 hrs, and then absorbance was read at 560 nm.

[2] = target: T1, Aβ 1-42 (Homo sapiens, UniProt P05067); experiment: Fluorometric H2O2 assay (inhibition of Abeta H2O2 production); type: biochemical; settings: concentration required to inhibit 50% of Abeta H2O2 production; read-out: H2O2 IC50
T1 construct: The reaction solutions contained Aβ 1-42 at concentrations
Procedure: Assay 1. Fluorometric H2O2 Assay
A fluorometric assay was used to test the ability of a test compound to inhibit hydrogen peroxide generation by Aβ in the presence of copper based on dichlorofluoroscein diacetate (DCF; Molecular Probes, Eugene Oreg.). The DCF solution (5 mM) in 100% dimethyl sulphoxide (previously purged with argon for 2 hr at 20° C.) was deacetylated in the presence of 0.25M NaOH for 30 min and neutralized at pH 7.4 to a final concentration of 1 mM. Horseradish peroxidase (HRP) stock solution was prepared to 1 μM at pH 7.4. The reactions were carried out in PBS, pH 7.4 in a 96 well plate (total volume=250 μl/well). […] The reaction mixture was incubated at 37 C for 60 min. […] H2O2 concentration may be established by comparing fluorescence with the H2O2 standards, Inhibition of Aβ H2O2 production was assayed by including a given concentration of test compound(s) in the test wells.

[3] = tested on: Abeta in extract of post-mortem human AD brain tissue; experiment: BAS: human brain amyloid solubilization assay; type: biochemical; settings: max effect across the concentration range, referenced to baseline PBS
Procedure: Assay 5. Human Brain Amyloid Solubilization Assay
This assay was performed in order to assess the ability of a test compound to mobilise Aβ, as an example form of amyloid, from the insoluble to the soluble phase of an extract of tissue from post mortem human AD brain.
Up to 0.5 g of plaque-bearing cortex without meninges was homogenized using a DIAX 900 homogenizer (Hendolph and Co, Kelheim, Germany) or other suitable device for three 30-second periods at full speed in 2 ml of ice-cold phosphate-buffered saline, pH 7.4. To obtain the phosphate-buffered saline-extractable fraction, the homogenate was centrifuged at 100,000×g for 30 min and the supernatant removed. Alternatively, the tissue was freeze dried then pulverized to form a powder which was then weighed out into aliquots for extraction as above. Supernatant, either freeze-dried and resuspended or in unconcentrated form, was dissolved in 200 μl of Tris-Tricine sodium dodecyl sulfate (SDS) sample buffer pH 8.3 containing 8% SDS, 10% 2-mercaptoethanol. Aliquots (10 μl) were then boiled for 10 minutes before SDS-polyacrylamide gel electrophoresis. The insoluble fraction of the cortical samples was obtained by resuspending the initial pelleted sample in 1 ml of phosphate-buffered saline, A 50-μl aliquot of this suspension was then boiled in […] of sample buffer as above.
Tris-Tricine polyacrylamide gel electrophoresis was performed by loading appropriately diluted samples on to 10% to 20% gradient gels (Novex, San Diego, Calif.) followed by transfer on to 0.2-μm nitrocellulose membrane (Bio-Rad, Hercules, Calif.). Aβ was detected by using monoclonal antibody W02, which detects residues 5 through 8, […] (or another suitable antibody) in conjunction with horseradish peroxidase-conjugated rabbit anti-mouse IgG (Dako, Denmark), and visualized by using enhanced chemiluminescence (eg ECL; Amersham Life Science, Buckinghamshire, UK). Each gel included three lanes containing 0.5, 1, and 2 ng of synthetic Aβ40 (Keck Laboratory, Yale University, New Haven, Conn.) as reference standards.
Blot films were scanned by using a suitable imaging system such as the UVP gel documentation system, and densitometry performed using suitable software, eg UVP Labworks. The dynamic range of the film/scanner was determined by using a step tablet (No. 911ST600, Kodak, Rochester N.Y.), a calibrated film exposed by the manufacturer to provided steps of known increasing intensity. The quantifiable range of signal intensity for densitometric analysis of the mono- and dimeric Aβ bands was based on the comparison with a curve obtained by scanning and densitometry of the step tablet.
All samples were analyzed at least twice, and gel loadings and dilutions were adjusted to fit within the quantifiable region of the standard curve. The proportion of ‘soluble’ to ‘insoluble’ Aβ may be used to determine the efficiency of extraction of a test compound compared with the efficiency of a known compound. The insoluble Aβ being comprised of the pelletable fraction derived from the insoluble amyloid plaque from the above cortical samples and the soluble fraction comprising monomeric and/or oligomeric soluble Aβ.

[4] = target: T2, Abeta:Zn (25:50 μM) Synthetic Aggregations (Homo sapiens, UniProt P05067); experiment: Disaggregation of Abeta:Zn synthetic aggregates (ThT fluorescence); type: biochemical; settings: for Disaggregation % Aggregate reduction at 5 μM: 5 μM test compound; for EC50: Abeta:Zn 25:50 μM aggregates
T2 construct: PB Compound Mediated Dissolution of Aggregated Abeta 1-42; purchased Keck Laboratory, Yale University School of Medicine
Procedure: PB Compound Mediated Dissolution of Aggregated Abeta 1-42
Abeta1-42, is available from the Keck Laboratory, Yale University School of Medicine. PBS (pH 6.6): Sigma Cat# D-8662. Zn(ZnCl2): BDH Cat#100884E. (Dissolved in water in 1 mM concentration) DMSO: Ajax Cat#2225. Thioflavin T: Sigma Cat# T-3516. (Dissolved in water in 1 mM concentration)
By way of example of an amyloid composition, Abeta is dissolved in distilled water and peptide concentration is assessed by measured absorption at 214 nm in UV spectrometer. An aggregation reactive mixture (per one concentration of one testing compound) is set us as follows: Abeta: 25 μM, ZnCl2 50 μM, ThT 50 μM, PBS to make up to 500 μl. The tube is wrapped with foil and incubated at 37 degrees by rotation for 24 hours. A serial dilution of each test compound is made up in DMSO, for example: 100 μM, 500 μM, 1000 μM, 2500 μM and 5000 μM. The final concentrations are 1, 5, 10, 25 and 50 μM, 5 μl of each of these compounds is placed in a centrifuge tube and 5 μl of DMSO is added to both negative and positive control tubes. 495 μl of aggregates (after 24 hours incubation) is added to the centrifuge tube. The negative control is PBS plus ZnCl2 and ThT and DMSO. The positive control is aggregates plus DMSO. The tubes are incubated at 37 degrees for further 2 hours with rotation. Samples are measured for ThT fluorescence using an LS55 (Perkin Elmer) fluorimeter in a cuvette (500 μl volume). The excitation wavelength is 450 nm and the emission wavelength is 480 nm. Data are analyzed using graph pad prism program. The tested compounds included so called “PB” compounds.

[5] = tested on: M17 human neuroblastoma cells; experiment: Cytotoxicity, M17 human neuroblastoma cells; type: cell-based; settings: for Cytotox (% viable) M17 cells at 1 μM: 1 μM test compound; for Cytotox (% viable) M17 cells at 10 μM: 10 μM test compound
Procedure: as §1, §2

T2 sequence (P05067 672-713 limits assumed): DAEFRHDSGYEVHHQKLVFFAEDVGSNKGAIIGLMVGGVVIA
T1 sequence (P05067 672-713 limits assumed): as above

| SMILES | Cytotox (% viable) Neuronal cells at 1 μM [1] [%] | Cytotox (% viable) Neuronal cells at 10 μM [1] [%] | IC50 [2] [nM] | BAS max effect [3] [%] | Disaggregation % Aggregate reduction at 5 μM [4] [%] | EC50 [4] [nM] | Cytotox (% viable) M17 cells at 1 μM [5] [%] | Cytotox (% viable) M17 cells at 10 μM [5] [%] |
| --- | --- | --- | --- | --- | --- | --- | --- | --- |
| Cl.Nc1ccc(O)c2ncccc12 [PB 44] | 108 | 71 | > 10000 | 191 | – | – | – | – |
| Oc1c(I)cc(I)c2cccnc12 [PB 46] | 91 | 95 | 400 | – | 58.7 | 4100 | – | – |
| CN(c1ccc2cccc(O)c2n1)c1ccc2cccc(O)c2n1 [PB 56] | 80 | 25 | 250 | 311 | – | – | – | – |
| Cc1cc(C)c2cccnc2c1O [PB 59] | 86 | 85 | 700 | 293 | – | – | – | – |
| Oc1ccc(/C=C/c2ccc3cccc(O)c3n2)cc1 [PB 89] | 100 | 75 | 2500 | 233 | – | – | – | – |
| O=C(O)c1ccccc1Nc1cccc(C(F)(F)F)c1 [PB 233] | – | – | > 10000 | 330 | – | – | – | – |
| CCCCc1ccc2ccc3ccc(CCCC)nc3c2n1 [PB 847] | – | – | < 2500 | 271 | – | – | – | – |
| O=C(NC(=S)Nc1cccc2cccnc12)c1ccccc1 [PB 915] | – | – | 1900 | 202 | – | – | – | – |
| C1CNCCSCCN1 [PB 942] | – | – | < 100 | 220 | – | – | – | – |
| CCN(CC)c1ccc2cc(-c3nc4ccccc4s3)c(=O)oc2c1 [PB 981] | – | – | – | 580 | – | – | – | – |
| Cc1ccc2c(c1)sc(-c1ccc(N(C)C)cc1)[n+]2C [PB 982] | – | – | – | 188 | – | – | – | – |
| Cc1ccc2nc(-c3ccc(N(C)C)cc3)sc2c1 [PB 983] | – | – | – | 278 | – | – | – | – |
| CN(C)c1ccc(/C=C/c2nc3ccccc3s2)cc1 [PB 985] | – | – | – | 265 | – | – | – | – |
| Nc1ccccc1NC(=O)c1cc(O)c2cccc(O)c2n1 [PB 986] | 98 | 82 | 3600 | – | 28 | 18400 | – | – |
| Oc1cc2cccnc2c2cccnc12 [PB 1026] | – | – | 230 | 186 | – | – | – | – |
| Oc1cccc2nc3ccccc3nc12 [PB 1027] | – | – | – | 306 | – | – | – | – |
| Cn1cnc2c(O)cccc21 [PB 1041] | – | – | – | 319 | – | – | – | – |
| Oc1cccc2cc3ccccc3nc12 [PB 1043] | – | – | – | 175 | – | – | – | – |
| OC1=NN=CC2C=CC=NC12 (stereo not drawn) [PB 1044] | – | – | – | 212 | – | – | – | – |
| COC(=O)c1nc(Cl)c2cccnc2c1O [PB 1045] | – | – | – | 166 | – | – | – | – |
| COC(=O)c1nc(O)c2cccnc2c1O [PB 1046] | – | – | – | 244 | – | – | – | – |
| O=c1ccnc2c(O)cccn12 [PB 1048] | – | – | – | 257 | – | – | – | – |
| O=c1[nH]cnc2c(O)cccc12 [PB 1049] | – | – | – | 237 | – | – | – | – |
| O=c1c(-c2ccc(Cl)cc2)cnc2c(O)cccn12 [PB 1069] | 97 | 42 | 480 | – | 34.8 | 11300 | 41.2 | 25.8 |
| CNCc1ccc2c(Cl)cc(Cl)c(O)c2n1.Cl [PB 1104] | 86 | 78 | 350 | – | 19.1 | > 20000 | – | – |
| CCN(CC)Cc1ccc2c(Cl)cc(Cl)c(O)c2n1.Cl [PB 1106] | 74 | 70 | 400 | – | 17.9 | 14200 | – | – |
| Br.Oc1cccc2c(=S)n(Cc3ccccn3)cnc12 [PB 1113] | 97 | 90 | 3200 | – | 25.5 | > 20000 | – | – |
| CCn1cnc2c(O)c(Cl)cc(Cl)c2c1=O [PB 1115] | 93 | 58 | 950 | – | 17 | > 20000 | 104.3 | 95.9 |
| CCOC(=O)c1cnc2c(O)c(CC)ncc2c1 [PB 1116] | 103 | 92 | 1630 | – | 16.8 | > 20000 | – | – |
| CCN(CC)CCNC(=O)c1cnc2c(O)cccn2c1=O [PB 1199] | – | – | 1640 | – | 20.4 | > 20000 | 115.2 | 102.7 |
